Assay results: patent publication US9169262B2, “Crystalline salts of Asenapine with organic di-acids and tri-acids” (SANDOZ AG, priority 2011, dated 2015)
Structures can show the parent of a compound that is named as a salt.

Experiments:
[1] = Polymorphic stability: suspension equilibration in water, PXRD; assay type: physicochemical; details: 25° C., 600 rpm, two days
[2] = Polymorphic stability: stirring in acetonitrile or organic solvent mixture, PXRD; details: for polymorph conversion in acetonitrile (PXRD): suspension in acetonitrile, room temperature, five days; for polymorph conversion in acetonitrile-acetone 1:1 (PXRD): suspension stirred at room/ambient temperature, four days
Description: The stability test is carried out by stirring the sample salt at 600 rpm in an amount of approximately 0.1 g/ml acetonitrile and optionally water as defined above. After 96 hours of stirring, the salt is removed by filtration and is dried and then subjected to X-ray powder diffraction analysis.

[3] = Water uptake / hygroscopicity by dynamic vapor sorption; assay type: physicochemical; details: for hygroscopic nature: dynamic vapor sorption; for water uptake (dynamic vapor sorption): up to 95% rel. humidity, citrate: most uptake above 80% relative humidity
Description: The hygroscopic nature of the citrate salt was investigated by dynamic vapor sorption.

[4] = 23° C., pH=4.4; cited from earlier work
[5] = Solubility of Asenapine maleate in saturated solution (literature, Funke et al.); assay type: physicochemical; details: saturated aqueous solution, water, thermodynamic from solid; maleate solubility at 23° C., pH=4.4, translated into free base
Description: Certain crystalline addition salts of Asenapine, for instance a fumarate (EP 0569096), salts with sulfonic acids (WO98/54186), and a pamoate or hemipamoate salt (EP569096), are described in the literature. The pamoate salt is disclosed to be amorphous and the hemipamoate salt is a mixture of amorphous and crystalline phase, wherein the palmitate is described as oil. The marketed form is the maleate salt, which is disclosed to exist in polymorphic forms (WO 2006/106135). The known Asenapine salts have a low solubility in water.

[6] = listed as Asenapine citrate of the invention

| polymorph conversion in water suspension (PXRD) [1] | polymorph conversion in water suspension (PXRD) [1, 6] | polymorph conversion in acetonitrile (PXRD) [2] | polymorph conversion in acetonitrile (PXRD) [2, 6] | hygroscopic nature [3] | water uptake (dynamic vapor sorption) [3] | polymorph conversion in water suspension (PXRD) ([1]; listed as crystalline malonate of the invention) | polymorph conversion in acetonitrile-acetone 1:1 (PXRD) [2] | polymorph conversion in acetonitrile-acetone 1:1 (PXRD) ([2]; listed as crystalline Asenapine malonate of the invention) | solubility [5] [µg/mL] | Structure (SMILES) | concentration of saturated solution [4] [µg/mL] |
| --- | --- | --- | --- | --- | --- | --- | --- | --- | --- | --- | --- |
| no phase transformation was observed | does not change its polymorphic form | no phase transformation was observed | does not change its polymorphic form | not or only very slightly hygroscopic | about 1.5% |  |  |  |  | CN1C[C@H]2c3ccccc3Oc3ccc(Cl)cc3[C@@H]2C1.O=C(O)CC(O)(CC(=O)O)C(=O)O [crystalline Asenapine citrate form I] |  |
| no phase transformation was observed |  |  |  | completely non-hygroscopic | less than 0.2% | no polymorph conversion was observed | no phase transformation was observed | No polymorph conversion |  | CN1CC2c3ccccc3Oc3ccc(Cl)cc3C2C1.O=C(O)CC(=O)O (centres unmarked) [crystalline Asenapine malonate form I] |  |
|  |  |  |  |  |  |  |  |  | ~4100 | CN1CC2c3ccccc3Oc3ccc(Cl)cc3C2C1 (centres unmarked) [maleate salt of Asenapine] | 5800 |
